± gives the standard deviation of the averaged measurements.
Test system: HL-60
Test: cell viability (% survival relative to DMSO control); higher = less cytotoxic
Conditions: 72 h
Method in brief: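 HL-60 cells grown in RPMI 1640 with 10% FBS were rescreened against the full library in 384-well plates, in duplicate, at five tenfold concentrations from 1 to 10,000 nM, alongside DMSO or 100 nM of one of three metabolic inhibitors for 72 h at 37 °C, 5% CO2. Reference wells contained DMSO or 10 μM proteasome inhibitor. Viability was read with CellTiter-Glo and normalised to these reference wells, and where reported, area under the curve was taken from four-parameter log-logistic fits in drc and PharmacoGx.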

[1] = 0.001 µM, co-treatment: AZD3965 100 nM
[2] = 0.001 µM, co-treatment: DMSO vehicle
[3] = 0.001 µM, co-treatment: GSK2194069 100 nM
[4] = 0.001 µM, co-treatment: pictilisib 100 nM
[5] = 0.01 µM, co-treatment: AZD3965 100 nM
[6] = 0.01 µM, co-treatment: DMSO vehicle
[7] = 0.01 µM, co-treatment: GSK2194069 100 nM
[8] = 0.01 µM, co-treatment: pictilisib 100 nM
[9] = 0.1 µM, co-treatment: AZD3965 100 nM
[10] = 0.1 µM, co-treatment: DMSO vehicle
[11] = 0.1 µM, co-treatment: GSK2194069 100 nM
[12] = 0.1 µM, co-treatment: pictilisib 100 nM
[13] = 1 µM, co-treatment: AZD3965 100 nM
[14] = 1 µM, co-treatment: DMSO vehicle
[15] = 1 µM, co-treatment: GSK2194069 100 nM
[16] = 1 µM, co-treatment: pictilisib 100 nM
[17] = 10 µM, co-treatment: AZD3965 100 nM
[18] = 10 µM, co-treatment: DMSO vehicle
[19] = 10 µM, co-treatment: GSK2194069 100 nM
[20] = 10 µM, co-treatment: pictilisib 100 nM

Compound	cell viability [1]	cell viability [2]	cell viability [3]	cell viability [4]	cell viability [5]	cell viability [6]	cell viability [7]	cell viability [8]	cell viability [9]	cell viability [10]	cell viability [11]	cell viability [12]	cell viability [13]	cell viability [14]	cell viability [15]	cell viability [16]	cell viability [17]	cell viability [18]	cell viability [19]	cell viability [20]
O=C(c1ccc(OCCN2CCCCC2)cc1)c1c(-c2ccc(O)cc2)sc2cc(O)ccc12 [Raloxifene]	93 ± 9.2%	85.9 ± 11%	79.1 ± 13%	104.6 ± 0.91%	91.9 ± 19%	80.4 ± 24%	80.5 ± 22%	94.1 ± 9%	98 ± 1.4%	101 ± 2.3%	93.3 ± 1.2%	99.7 ± 8.1%	101 ± 8.2%	97.14 ± 0.84%	87.1 ± 23%	105 ± 2.5%	100.7 ± 0.99%	101 ± 1.9%	70.9 ± 18%	113 ± 9.9%
O=C(O)c1nn(Cc2ccc(Cl)cc2Cl)c2ccccc12 [Lonidamine]	96.3 ± 3.7%	97.83 ± 0.75%	96.6 ± 2.2%	101 ± 1.6%	90.8 ± 2%	105 ± 1.4%	97.05 ± 0.16%	99.3 ± 12%	100 ± 3.7%	100.5 ± 0.34%	98.9 ± 2.4%	98.22 ± 0.36%	101 ± 1.1%	101 ± 1.2%	101 ± 7.9%	103 ± 7.6%	95.4 ± 9.7%	98.4 ± 5.4%	99.8 ± 5.7%	94.8 ± 8.1%
CC12CCC(O)CC1CCC1C2CCC2(C)C(C3=CC(=O)OC3)CCC12O (stereo not given) [Digitoxigenin]	104 ± 7.6%	99.5 ± 2.3%	98.16 ± 0.98%	104 ± 4.3%	100 ± 5.7%	105 ± 4.2%	99.7 ± 2%	105 ± 4.2%	102 ± 1.2%	100 ± 3%	95 ± 3%	101.7 ± 0.93%	-0.584 ± 0.77%	-1.01 ± 1.5%	-0.749 ± 1.5%	-1.18 ± 0.99%	-0.476 ± 0.086%	-0.944 ± 0.072%	-1.7 ± 0.21%	-1.09 ± 0.14%
CCOC(=O)[C@H]1O[C@@H]1C(=O)N[C@@H](CC(C)C)C(=O)NCCC(C)C [Aloxistatin]	100 ± 1.1%	102 ± 6%	102 ± 11%	106 ± 11%	101 ± 4.6%	104 ± 7.9%	106 ± 15%	115 ± 19%	98 ± 5.8%	100 ± 1.2%	95.8 ± 2.5%	100 ± 6.3%	97.6 ± 3.7%	100 ± 1.4%	92.5 ± 11%	106 ± 5.1%	103 ± 6.2%	99.7 ± 2.7%	115 ± 23%	99.7 ± 3.2%
Nc1ncnc2c1ncn2[C@@H]1O[C@H](CSCC[C@H](N)C(=O)O)[C@@H](O)[C@H]1O [S-Adenosyl Homocysteine]	103 ± 18%	97.1 ± 11%	91.8 ± 36%	108 ± 33%	85.2 ± 20%	93.3 ± 4.4%	86.7 ± 12%	78.6 ± 4.6%	101 ± 3.4%	98.6 ± 3.3%	103 ± 8.4%	102 ± 5.2%	97.2 ± 3.1%	98.5 ± 2.5%	99.08 ± 0.63%	97.8 ± 7%	101.99 ± 0.033%	99.4 ± 3.9%	94.5 ± 13%	98 ± 4.3%
Cc1c(-c2ccccc2)oc2c(C(=O)OCCN3CCCCC3)cccc2c1=O.Cl [Flavoxate]	90.8 ± 13%	99.7 ± 1.6%	82.5 ± 21%	98.6 ± 1%	101.5 ± 0.24%	100 ± 1.1%	101 ± 2.1%	105 ± 3.5%	109 ± 9.9%	104 ± 2.8%	105 ± 11%	110 ± 16%	103 ± 3.7%	95.5 ± 12%	98.1 ± 9.8%	101 ± 9.9%	97.1 ± 5.2%	98.8 ± 0.023%	91.7 ± 8%	91.7 ± 10%

Reference: the supplement of paper PMC8671470
